Reference: ChEMBL document CHEMBL1153745, “The Caulerpa pigment caulerpin inhibits HIF-1 activation and mitochondrial respiration” (J Nat Prod, 2009)
Activity calls are given as the source filed them. The rule behind the calls is not given here.

Experiments:
[1] = tested on: HUVEC; assay: Antiangiogenic activity in human HUVEC cells assessed as decrease in branch point number up to 30 uM after 18 hrs by Matrigel based tube formation assay; format: functional, cell-based
[2] = tested on: MDA-MB-231; assay: Cytotoxicity against human MDA-MB-231 cells up to 30 uM after 22 hrs by neutral red method; format: cell-based; settings: mda-mb-231, 22 h
[3] = tested on: HUVEC; assay: Antiangiogenic activity in human HUVEC cells assessed as decrease in tube length up to 30 uM after 18 hrs by Matrigel based tube formation assay; format: functional, cell-based
[4] = tested on: T47D; assay: Inhibition of electron transport protein complex 1 in digitonin-permeabilized human T47D cells assessed as decrease in oxygen consumption at 30 uM by mitochondrial respiration assay; format: cell-based
[5] = molecular target: T1, Hypoxia inducible factors; HIF-1-alpha, HIF-2-alpha (Homo sapiens) (UniProt Q16665+Q99814); assay: Inhibition of 1,10-phenanthroline-induced HIF1 activation in human T47D cells after 16 hrs by pTK-HRE3-luciferase reporter gene assay; format: cell-based
[6] = molecular target: T1, Hypoxia inducible factors; HIF-1-alpha, HIF-2-alpha (Homo sapiens); assay: Inhibition of 1,10-phenanthroline-induced HIF1 activation in human T47D cells at 1 uM after 16 hrs by pTK-HRE3-luciferase reporter gene assay; format: cell-based
[7] = molecular target: T1, Hypoxia inducible factors; HIF-1-alpha, HIF-2-alpha (Homo sapiens); assay: Inhibition of hypoxia-induced HIF1 activation in human T47D cells at 1 uM after 16 hrs by pTK-HRE3-luciferase reporter gene assay; format: cell-based
[8] = tested on: T47D; assay: Cytotoxicity against human T47D cells under hypoxic conditions at 30 uM after 16 hrs; format: cell-based
[9] = tested on: T47D; assay: Effect on luciferase expression in hypoxia-stimulated human T47D cells expressing pGL3 construct at 30 uM after 16 hrs by reporter gene assay; format: functional
[10] = tested on: T47D; assay: Inhibition of hypoxia-induced VEGF mRNA expression in human T47D cells at 30 uM after 16 hrs by RT-PCR; format: functional, cell-based
[11] = tested on: T47D; assay: Inhibition of hypoxia-induced GLUT1 mRNA expression in human T47D cells at 30 uM after 16 hrs by RT-PCR; format: functional, cell-based
[12] = tested on: T47D; assay: Inhibition of hypoxia-induced VEGF mRNA expression in human T47D cells at 10 uM after 16 hrs by RT-PCR; format: functional, cell-based
[13] = tested on: T47D; assay: Inhibition of hypoxia-induced GLUT1 mRNA expression in human T47D cells at 10 uM after 16 hrs by RT-PCR; format: functional, cell-based
[14] = tested on: T47D; assay: Inhibition of 1,10-phenanthroline-induced VEGF mRNA expression in human T47D cells at 30 uM after 16 hrs by RT-PCR; format: functional, cell-based
[15] = tested on: T47D; assay: Inhibition of 1,10-phenanthroline-induced GLUT1 mRNA expression in human T47D cells at 30 uM after 16 hrs by RT-PCR; format: functional, cell-based
[16] = tested on: T47D; assay: Inhibition of hypoxia-induced secreted VEGF protein level in human T47D cells at 10 uM after 16 hrs by ELISA; format: functional, cell-based
[17] = tested on: T47D; assay: Inhibition of secreted VEGF protein level in human T47D cells under normoxic conditions at 10 uM after 16 hrs by ELISA; format: functional, cell-based
[18] = tested on: HUVEC; assay: Antiangiogenic activity in human HUVEC cells assessed as inhibition of hypoxic T47D cell-conditioned media-induced tube formation at 10 uM after 18 hrs by Matrigel based tube formation assay; format: functional
[19] = tested on: HUVEC; assay: Antiangiogenic activity in human HUVEC cells assessed as inhibition of hypoxic T47D cell-conditioned media-induced tube formation at 30 uM after 18 hrs by Matrigel based tube formation assay; format: functional
[20] = tested on: HUVEC; assay: Antiangiogenic activity in human HUVEC cells assessed as inhibition of normoxic T47D cell-conditioned media-induced tube formation at 30 uM after 18 hrs by Matrigel based tube formation assay; format: functional
[21] = tested on: MDA-MB-231; assay: Inhibition of cell migration in human MDA-MB-231 cells under normoxic conditions after 22 hrs by wound-healing assay; format: functional, cell-based
[22] = tested on: MDA-MB-231; assay: Inhibition of cell migration in human MDA-MB-231 cells under hypoxic conditions after 22 hrs by wound-healing assay; format: functional, cell-based
[23] = tested on: MDA-MB-231; assay: Cytotoxicity against human MDA-MB-231 cells under hypoxic conditions up to 30 uM after 22 hrs by neutral red method; format: cell-based; settings: mda-mb-231, 22 h
[24] = tested on: MDA-MB-231; assay: Growth inhibition of human MDA-MB-231 cells at 1 uM to 30 uM after 48 hrs by sulforhodamine B assay; format: functional, cell-based
[25] = tested on: DU-145; assay: Growth inhibition of human DU145 cells at 1 uM to 30 uM after 48 hrs by sulforhodamine B assay; format: functional, cell-based
[26] = tested on: T47D; assay: Growth inhibition of human T47D cells at 1 uM to 30 uM after 48 hrs by sulforhodamine B assay; format: functional, cell-based
[27] = tested on: MCF7; assay: Growth inhibition of human MCF7 cells at 1 uM to 30 uM after 48 hrs by sulforhodamine B assay; format: functional, cell-based
[28] = tested on: PC-3; assay: Growth inhibition of human PC3 cells at 30 uM after 48 hrs by sulforhodamine B assay; format: functional; settings: PC-3, 48 h, read-out: GI
[29] = Growth inhibition of human HMEC cells up to 30 uM after 48 hrs by sulforhodamine B assay; format: cell-based; settings: read-out: GI
[30] = tested on: T47D; assay: Inhibition of hypoxia-induced nuclear HIF1alpha accumulation in human T47D cells at 10 uM after 4 hrs by Western blot analysis; format: functional, cell-based
[31] = tested on: T47D; assay: Inhibition of 1,10-phenanthroline-induced nuclear HIF1alpha accumulation in human T47D cells at 10 uM after 4 hrs by Western blot analysis; format: functional, cell-based
[32] = tested on: T47D; assay: Inhibition of hypoxia-induced nuclear HIF1beta accumulation in human T47D cells at 10 uM after 4 hrs by Western blot analysis; format: functional, cell-based
[33] = tested on: T47D; assay: Inhibition of electron transport protein complex 1 in human T47D cells assessed as reduction of oxygen consumption at 10 uM; format: cell-based
[34] = tested on: T47D; assay: Inhibition of electron transport protein complex 1 in human T47D cells assessed as reduction of oxygen consumption at 30 uM; format: cell-based
[35] = tested on: T47D; assay: Inhibition of electron transport protein complex 1 in human T47D cells assessed as reduction of oxygen consumption at 30 uM pretreated for 2 hrs relative to untreated control; format: cell-based
[36] = tested on: T47D; assay: Inhibition of electron transport protein complex 1 in digitonin-induced permeable human T47D cells assessed as reduction of oxygen consumption at 30 uM relative to control; format: cell-based
[37] = tested on: T47D; assay: Inhibition of electron transport protein complex 1 in human T47D cells assessed as decrease in oxygen consumption at 30 uM pretreated for 2 hrs before malate and pyruvate addition by mitochondrial respiration assay; format: cell-based
[38] = tested on: T47D; assay: Inhibition of electron transport protein complex 2 in human T47D cells assessed as decrease in oxygen consumption at 30 uM pretreated for 2 hrs before succinate addition by mitochondrial respiration assay; format: cell-based
[39] = tested on: T47D; assay: Inhibition of electron transport protein complex 3 in human T47D cells assessed as decrease in oxygen consumption at 30 uM pretreated for 2 hrs before succinate addition by mitochondrial respiration assay; format: cell-based
[40] = tested on: T47D; assay: Inhibition of electron transport protein complex 4 in human T47D cells assessed as decrease in oxygen consumption at 30 uM pretreated for 2 hrs before TMPD/ascorbate addition by mitochondrial respiration assay; format: cell-based
[41] = tested on: T47D; assay: Inhibition of cellular respiration in human T47D cells assessed as oxygen consumption; format: functional, cell-based

- Activity [5]: Dose-dependent effect
- Activity [6]: Active
- Activity [7]: Active
SMILES: COC(=O)/C1=C/c2c([nH]c3ccccc23)/C(C(=O)OC)=C\c2c1[nH]c1ccccc21 [CAULERPIN]
- Activity [1]: Active
- Activity [2]: 15%
- Activity [3]: Active
- Activity [4]: Active
- Activity [8]: <= 10%
- Activity [9]: <=10%
- Activity [10]: Active
- Activity [11]: Active
- Activity [12]: inactive
- Activity [13]: inactive
- Activity [14]: inactive
- Activity [15]: inactive
- Activity [16]: Active
- Activity [17]: inactive
- Activity [18]: Active
- Activity [19]: Active
- Activity [20]: inactive
- Activity [21]: Dose-dependent effect
- Activity [22]: Dose-dependent effect
- Activity [23]: 15%
- Activity [24]: Active
- Activity [25]: inactive
- Activity [26]: Active
- Activity [27]: Active
- inhibition of growth at 30 µM [28]: 52%
- inhibition at 48 h [29]: < 25%
- Activity [30]: Active
- Activity [31]: inactive
- Activity [32]: inactive
- Activity [33]: inactive
- inhibition [34]: 30%
- inhibition [35]: 87%
- inhibition [36]: 57%
- Activity [37]: Active
- Activity [38]: inactive
- Activity [39]: inactive
- Activity [40]: inactive
- Activity [41]: Dose-dependent effect
